Reference: publication PMC4189421, “Induction of Oligodendrocyte Differentiation and In Vitro Myelination by Inhibition of Rho-Associated Kinase” (ASN NEURO, 2014)

Tests used:
rat mixed glial OPCs = experiment: Myelin protein expression in rat mixed glia-derived OPCs (qPCR, MBP ELISA); format: cell-based
Method: Rat postnatal OPCs were obtained as described elsewhere according to the original procedure of [McCarthy and […] (1980)]. In brief, postnatal Day 1 rat pups were sacrificed, and cerebral cortices dissected and mechanically dissociated in medium composed of DMEM, 10% heat inactivated fetal bovine serum, and 5 μg/ml penicillin/streptomycin. Dissociated cells were plated and maintained in 75-cm^2 culture flasks for 10 days, replenishing with fresh media at Days 3 and 7. At Day 10, the flasks were shaken on a heated (37°C) shaker for 1 hr at 110 rpm to separate loosely attached microglial cells. The medium was replenished, and the cells incubated for the remainder of the day. To dislodge OPCs from the astrocyte monolayer, flasks were shaken overnight (210 rpm, 37°C). […] Cells were then plated on PDL-coated tissue culture plastic and treated with test compounds. […] The results are presented as specific mRNA expression relative to either β-actin or β-tubulin, used as internal controls as indicated. OPCs isolated from rat mixed glial cultures are known to mature readily in the absence of mitogens achieving a premyelinating OL stage as determined by the expression of the cell surface sulfatide O4, and the myelin proteins MBP and PLP among others ([Armstrong, 1998]; [Barbarese & Pfeiffer, 1981]; [[…], 1999]; [Jung-[…], Schumacher, Robel, & Baulieu, 1996]; [Konola, Tyler, Yamamura, & Lees, 1991]). They also display marked morphological changes, progressing from bipolar to multibranched cells generating membranous structures, and probably represent a later developmental stage than Nph-OPC. In rat mixed glial OPCs, we measured myelin protein expression at the RNA level by qPCR and MBP production by ELISA (MBL International, Woburn, MA).

[1] = system: cerebellar organotypic cultures; experiment: Remyelination in lysolecithin-demyelinated cerebellar slices (qPCR of MBP, PLP, MOG); format: cell-based, rat; conditions: 10 µM, 10-day incubation post-lysolecithin, vs 0.1% DMSO
Method: In brief, after careful dissection to keep the tissue intact, cerebella of postnatal Days 4 to7 wild-type mouse pups were sectioned at 400 -µm thickness using a Leica VT1000S vibratome. […] When the slices were firmly attached, fresh medium was added to cover the tissue, and the cultures were maintained under these conditions for 4 days. […] Treatments with compounds were initiated at this point, and the cultures maintained for 4 to 10 additional days. Demyelination–remyelination was assessed by real-time polymerase chain reaction (PCR).
Total RNA was isolated from single-cell cultures or tissue explants using Tri-Zol reagent (Gibco). cDNA was generated from 1 to 3 µg of total RNA by Retrotranscriptase II (Gibco) reaction, and the selected transcripts were detected and amplified by quantitative RT-PCR in an Applied Biosystems (Grand Island, NY) 7500 fast qPCR machine, following the manufacturer’s instructions.

[2] = system: hPSC-OPCs cocultured with rat dorsal root ganglion neurons; experiment: Myelination in hPSC-OPC / rat DRG neuron cocultures (MBP/NF overlap); format: cell-based, human; conditions: compound for first 48 hr, 28 days coculture
Method: Human pluripotent stem cell-derived OPC (hSC-OPC)/[…] dorsal root ganglion (rDRG) cocultures were carried out as follows: 5,000 hES-OPCs were seeded on top of 14-day-old DRG neuron axons in each well of 96-well black μClear plates (Greiner). The cells were seeded in 100 μl of myelination media (MYL) for each well. Twenty-four hours after seeding, media were gently removed, and a fresh MYL medium that contained the compound of interest at a specific dilution (in 0.1% DMSO) was supplemented to the media (first feeding), and the total volume for each well was 200 μl. For each tested compound dose, four replicates were used. After 48 hr, the media were replenished by removing 100 μl of media, and fresh MYL medium (that contains 0.1% DMSO) was added to the wells. […]
The ArrayScan VTI HCS reader system (Cellomis, Thermo-scientific) was used for scanning 49 fields for each tested well under 10× objective. […] The four-parameter Hill-Slope curve fittings were generated by GraphPad Prism software using least squares fitting method, and EC50 values were calculated for the three major parameters of oligodendrocyte myelination: number of differentiated oligodendrocytes, areas of myelinated axons in pixels (MBP and NF overlap area), and number of myelinated regions (MBP and NF overlap count). […]

## C[C@@H](N)[C@H]1CC[C@H](C(=O)Nc2ccncc2)CC1.Cl.Cl [Y0503, trans-4-[(1 R)-1-aminoethyl]-N-4-pyridinylcyclohexanecarboxamide dihydrochloride]
Rat mixed glial OPCs; 3 days maturation +4 days treatment, concentrations as low as 0.1 µM
  Expression of MBP, PLP, and MOG mRNAs (qPCR): significant increase
Rat mixed glial OPCs; treatments at 24 hr and 72 hr after plating
  MBP at the protein level (ELISA): increased expression
[1]
  Expression of MBP, PLP, MOG mRNAs in demyelinated cerebellar slices (qPCR): significant increase
[2]
  Number and length of MBP-positive oligodendrocyte processes colocalized with NF-positive axons: dose-response effect
